# According to patent publication US8841090B2 (priority 2006, dated 2014):
# Entries after “also recorded” stand apart in the source; their conditions may differ. Like-named read-outs stand apart in the source and are kept apart here.
# Key:
# [1] = molecular target: KmLat1 transporter (Kluyveromyces marxianus, UniProt A0ABX6EN84); assay: L-arabinose transport by KmLat1 expressed in S. cerevisiae, 14C-sugar uptake; assay type: cell-based; conditions: for Competition with L-arabinose transport by KmLat1: competing sugars; for Inhibition of L-arabinose transport by KmLat1: protonophores and H+-ATPase inhibitors
# KmLat1 transporter (Kluyveromyces marxianus, UniProt A0ABX6EN84), sequence (A0ABX6EN84 entry or part of it): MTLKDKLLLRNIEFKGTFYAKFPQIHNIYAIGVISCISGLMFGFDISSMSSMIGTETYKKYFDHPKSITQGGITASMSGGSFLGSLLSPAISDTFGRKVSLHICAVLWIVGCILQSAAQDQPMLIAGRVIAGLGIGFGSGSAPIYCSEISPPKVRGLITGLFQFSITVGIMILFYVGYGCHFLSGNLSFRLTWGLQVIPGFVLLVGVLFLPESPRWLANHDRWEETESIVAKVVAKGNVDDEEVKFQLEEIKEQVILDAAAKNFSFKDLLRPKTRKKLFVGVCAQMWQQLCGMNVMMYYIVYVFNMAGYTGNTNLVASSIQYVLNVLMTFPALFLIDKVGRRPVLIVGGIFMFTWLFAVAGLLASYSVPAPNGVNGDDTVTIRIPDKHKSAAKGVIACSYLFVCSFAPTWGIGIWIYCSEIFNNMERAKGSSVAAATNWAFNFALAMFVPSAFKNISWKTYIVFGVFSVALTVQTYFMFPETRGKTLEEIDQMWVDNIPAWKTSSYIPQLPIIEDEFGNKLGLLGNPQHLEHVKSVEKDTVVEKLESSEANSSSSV
# Method: (§1) Cells are collected in mid-growth and washed twice before suspension in water at 30 mg/ml. Uptake of L-(1-^14C)arabinose (54 mCi/mmol, Moravek Biochemicals Inc.) or D-(1-^14C) galactose (57 mCi/mmol, Amersham Biosciences) is measured as previously described by Stambuk et al. (2003). Assays are performed in 30 seconds to maintain initial rates after appropriate experiments to ensure uptake is linear for at least 1 minute. […] Inhibition and competition assays are performed as previously described by Stambuk et al, (2003).
# (§2) The transport characteristics of the KmLat1 and the Gal2 transporters expressed in S. cerevisiae were compared.
# [2] = molecular target: PgLAT2 transporter (Meyerozyma guilliermondii, UniProt A5DRF8); assay: L-arabinose transport by PgLAT2 transporter expressed in S. cerevisiae BFY605; conditions: for Competition with L-arabinose uptake by PgLAT2: competing sugars; for Inhibition of L-arabinose transport by PgLAT2: protonophores and H+-ATPase inhibitors
# Method: (§3) Cells were collected in mid-growth and washed twice in water before suspension in water at about 30 mg/ml. […] Assays were performed in 5, 10, or 30 second periods to maintain initial rates. Appropriate experiments ensured uptake was linear for at least 1 minute. Transport activity was described as nmoles of labeled sugar transported per mg cell dry weight per minute.
# [3] = molecular target: T1, Gal2 permease (Saccharomyces cerevisiae, UniProt P13181, G90S/H392R/M8V/S50P); assay type: cell-based, S. cerevisiae; conditions: for Competition with L-arabinose transport by Gal2 permease: competing sugars
# T1 construct: expressed in transfected cells; host or cells: S. cerevisiae BFY597 (gal2Δ::HIS3, plasmids p138 and p42)
# T1 sequence (P13181 whole entry M8V/S50P/G90S/H392R): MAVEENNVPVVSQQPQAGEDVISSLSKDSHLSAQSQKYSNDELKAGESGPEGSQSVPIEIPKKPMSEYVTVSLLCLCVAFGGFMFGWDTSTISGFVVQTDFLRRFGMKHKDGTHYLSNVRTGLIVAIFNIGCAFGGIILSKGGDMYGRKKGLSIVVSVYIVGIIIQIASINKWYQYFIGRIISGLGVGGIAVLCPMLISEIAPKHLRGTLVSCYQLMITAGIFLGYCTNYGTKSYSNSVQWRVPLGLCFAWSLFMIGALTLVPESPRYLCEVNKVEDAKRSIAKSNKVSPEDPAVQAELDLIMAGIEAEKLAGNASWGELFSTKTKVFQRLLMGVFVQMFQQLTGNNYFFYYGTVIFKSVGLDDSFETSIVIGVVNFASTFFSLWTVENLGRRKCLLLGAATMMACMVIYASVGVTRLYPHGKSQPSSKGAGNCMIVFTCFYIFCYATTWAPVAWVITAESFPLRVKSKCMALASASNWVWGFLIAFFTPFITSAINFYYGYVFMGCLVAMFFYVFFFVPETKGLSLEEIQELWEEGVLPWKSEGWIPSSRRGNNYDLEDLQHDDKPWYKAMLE
# Method: as §1, §2
# [4] = test system: P. guilliermondii Y-2075; assay: Sugar transport in wild type P. guilliermondii Y-2075 grown on L-arabinose; assay type: cell-based, Pichia guilliermondii
# Method: as §3
# [5] = test system: KmLat1 transporter; assay: L-arabinose transport by KmLat1 expressed in S. cerevisiae, 14C-sugar uptake; assay type: cell-based, Kluyveromyces marxianus
# Method: as §1, §2
# [6] = inhibitor NaN3 10 mM, others 5 mM, […] labeled L-arabinose, no inhibitor = 100
# [7] = inhibitor NaN3 10 mM, others 5 mM, 0.33 mM labeled L-arabinose, none = 100
# [8] = competing sugar 900 mM, 30 mM labeled L-arabinose, no sugar = 100
Compound,Relative L-arabinose transport (%) KmLat1 [1],Relative L-arabinose transport S. cerevisiae (PgLAT2 transporter) [2],Competition with L-arabinose uptake by PgLAT2 [2],Inhibition of L-arabinose transport by KmLat1 [1],"Relative L-arabinose transport (%) Gal2 [3, 6]",Inhibition of L-arabinose transport by PgLAT2 [2],"Relative L-arabinose transport P. guilliermondii [4, 7]","Relative L-arabinose transport (%) KmLat1 [1, 6]","Relative L-arabinose transport S. cerevisiae (PgLAT2 transporter) [2, 7]",other results
OC[C@H]1O[C@H](O[C@H]2[C@H](O)[C@@H](O)C(O)O[C@@H]2CO)[C@H](O)[C@@H](O)[C@@H]1O (mixture of isomers) [Maltose],38%,30,to a lesser extent,,,,,,,Competition with L-arabinose transport by KmLat1 [1]: out-competed
N#CC(C#N)=NNc1cccc(Cl)c1 [CCCP],61%,2,,not significantly inhibited,46%,significant inhibition,0,,,
C(=NC1CCCCC1)=NC1CCCCC1 [DCCD],55%,36,,Neither is KmLat1 inhibited,69%,significant inhibition,,,,Relative L-arabinose transport P. guilliermondii [4]: 22
CC/C(=C(/CC)c1ccc(O)cc1)c1ccc(O)cc1 [DESB],,,,Neither is KmLat1 inhibited,81%,significant inhibition,8,100%,1,
O=[N+]([O-])c1ccc(O)c([N+](=O)[O-])c1 [DNP],,,,not significantly inhibited,72%,significant inhibition,0,75%,4,
O=C[C@H](O)[C@@H](O)[C@@H](O)[C@H](O)CO [Galactose],,,inhibited,,,,,,,"Relative L-arabinose transport (%) KmLat1 ([5]; competing sugar 900 mM (maltose 450 mM), 30 mM labeled L-arabinose, no sugar = 100): 23%; Competition with L-arabinose transport by KmLat1 ([5]; competing sugars): out-competed; Vmax for galactose transport by Gal2p ([3]; BFY597): 76 nmol/mg/min; Relative L-arabinose transport (%) Gal2 [3, 8]: 3%; Competition with L-arabinose transport by Gal2 permease [3]: significantly reduced; also recorded: out-competed; Km ([3]; read-out: Km for galactose transport by Gal2p, BFY597): 25 mM"
[N-]=[N+]=[N-].[Na+] [NaN3],,,,not significantly inhibited,66%,significant inhibition,1,11%,16,
O=C[C@H](O)[C@@H](O)[C@H](O)CO [Xylose],25%,0,inhibited,,,,,,,"Competition with L-arabinose transport by KmLat1 [1]: out-competed; Relative L-arabinose transport (%) Gal2 [3, 8]: 25%; Competition with L-arabinose transport by Gal2 permease [3]: significantly reduced; Relative L-arabinose transport P. guilliermondii [4]: 4; Reduction of uptake of labeled L-arabinose ([4]; 100× un-labeled competing sugar): 96%"
